Source: paper PMC10672241, “New Cyclopiane Diterpenes and Polyketide Derivatives from Marine Sediment-Derived Fungus Penicillium antarcticum KMM 4670 and Their Biological Activities” (Marine Drugs, 2023)
Like-named read-outs stand apart in the source and are kept apart here.

How the values were obtained:
sortase A from S. aureus = molecular target: T1, sortase A from S. aureus (Staphylococcus aureus, UniProt Q2FV99); test: Sortase A activity inhibition assay (SensoLyte 520 kit, cell-free); type: biochemical; conditions: for inhibition of sortase A activity: 50 µM, after 10 min of incubation; for inhibition at 50 µM: read-out: inhibition of sortase A activity, 50 µM, after 10 min of incubation
T1 construct: purchased AnaSpec AS-72229
T1 sequence (Q2FV99 whole entry): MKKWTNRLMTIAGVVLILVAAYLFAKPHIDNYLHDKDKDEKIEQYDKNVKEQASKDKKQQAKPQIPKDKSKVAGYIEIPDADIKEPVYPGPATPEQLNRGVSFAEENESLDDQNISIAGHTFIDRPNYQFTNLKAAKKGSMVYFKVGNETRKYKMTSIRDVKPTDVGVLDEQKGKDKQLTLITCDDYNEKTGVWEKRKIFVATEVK
Protocol: The enzymatic activity of sortase A from S. aureus was determined using SensoLyte 520 Sortase A Activity Assay Kit Fluorimetric (AnaSpec AS-72229, AnaSpec, San Jose, CA, USA) in accordance with the manufacturer’s instructions. […] DMSO at a concentration of 0.8% was used as a control. 4-(Hydroxymercuri)benzoic acid (PCMB) was used as sortase A enzyme activity inhibitor. Fluorescence was measured with a plate reader PHERAStar FS (BMG Labtech, Offenburg, Germany) for 60 min, with a time interval of 5 min. The data were processed with MARS Data Analysis v. 3.01R2 (BMG Labtech, Offenburg, Germany). The results were presented as relative fluorescent units (RFUs) and percentage of the control data, calculated using STATISTICA 10.0 software.

H9c2 cardiomyocytes = test: H9c2 cell viability (MTT) assay; type: cell-based, rat; conditions: for Cell Viability: 24 h, MTT; for toxicity toward normal cardiomyocytes: at the concentrations in which they affected the growth of microorganisms
Protocol: (§1) The rat cardiomyocytes H9c2 cells were kindly provided by Prof. Dr. Gunhild von Amsberg from Martini-Klinik Prostate Cancer Center, University Hospital Hamburg-Eppendorf, Hamburg, Germany.
(§2) The H9c2 cells were cultured in DMEM medium (Biolot, St. Petersburg, Russia) containing 10% fetal bovine serum (Biolot, St. Petersburg, Russia) and 1% penicillin/streptomycin (Biolot, St. Petersburg, Russia) at 37 °C in a humidified atmosphere with 5% (v/v) CO2.
(§3) The H9c2 cells were seeded at concentrations of 3 × 10^3 cell/well, and the experiments were started after 24 h. The compounds at concentrations up to 100 µM were added into the wells for 24 h, and the viability of the cells was measured with an MTT (3-(4,5-dimethylthiazol-2-yl)-2,5-diphenyltetrazolium bromide) assay, which was performed according to the manufacturer’s instructions (Sigma-Aldrich, Munich, Germany). All compounds were dissolved with DMSO so that the final concentration of DMSO in the cell culture was not more than 1%. Moreover, DMSO was used as a control. The results were presented as a percent of the control data and calculated IC50.

Escherichia coli [1] = test: Literature antibacterial activity against Escherichia coli; type: cell-based; conditions: calculated from 50 μg/mL
Escherichia coli [2] = system: Escherichia coli; set-up: method as in PMID 31226283; conditions: bacterial suspension 10^6 CFU per milliliter; cited from earlier work
[3] = system: S. aureus biofilm formation; test: Crystal violet biofilm formation assay, S. aureus; type: cell-based, Staphylococcus aureus; conditions: for IC50: Staphylococcus aureus, read-out: half-maximal concentration (IC50) of the biofilm formation inhibition; for prevention of the biofilm formation of S. aureus: concentration not given
Protocol: (§4) The inhibition reducing biofilm formation and growth was assessed using the crystal violet biofilm assay as described. Overnight cultures of bacteria S. aureus and E. coli and yeast-like fungi C. albicans were inoculated into Mueller–Hinton broth at a concentration of 10^9 CFU/mL. A total of 90µL of this cell suspension was then dispensed into 96-well microtiter plates containing 10 µL of different concentrations of compounds 1–6. After 24 h growth at 37 °C, the plates were washed with PBS to remove unbound cells. Next, the wells were stained with 0.1% crystal violet solution for 10 min at 37 °C. At the completion of the incubation, plates were washed 3 times with PBS and dried. Then, the crystal violet dye from the biofilm was solubilized with 100 µL of ethanol. A total of 100 µL of this solution was then moved to a new microtiter plate for absorbance measurement at λ = 570 nm. The results were reported as percent inhibition normalized to the wild-type control.

Candida albicans KMM 455 = test: Antimicrobial activity: C. albicans growth (OD620, 96-well broth); type: cell-based; conditions: for inhibition at 12.5 µM: KMM455, 12.5 µM
Protocol: (§5) The yeast-like fungi of Candida albicans KMM 455 and bacterial strains Staphylococcus aureus ATCC 21027 and Escherichia coli VKPM (B-7935) (Collection of Marine Microorganisms PIBOC FEB RAS) were cultured on solid medium Mueller Hinton broth with agar (16.0 g/L) in a Petri dish at 37 °C for 24 h.
(§6) The assays were performed in 96-well microplates in appropriate Mueller Hinton broth. Each well contained 90 µL of bacterial or of yeast-like fungi suspension (10^9 CFU/mL). Then, 10 µL of a compound diluted at concentrations from 1.5 µM to 100.0 µM using two-fold dilution were added (DMSO concentration <1%). Culture plates were incubated for 18 h at 37 °C, and the OD620 was measured using a Multiskan FS spectrophotometer (Thermo Scientific Inc., Beverly, MA, USA). The antibiotic gentamicin and the antifungal agent nitrofungin were used as positive controls at 1 mg/mL; 1% DMSO in PBS served as a negative control.

[4] = system: Staphylococcus aureus ATCC 21027; test: Antimicrobial activity: S. aureus growth (OD620, 96-well broth); type: cell-based; conditions: for inhibition at 12.5 µM / inhibition at 100 µM: Staphylococcus aureus; for inhibition at 12.5 µM: ATCC21027, 12.5 µM; for inhibition at 100 µM: ATCC21027, 100 µM
Protocol: as §5, §6

Staphylococcus aureus [5] = system: Staphylococcus aureus; set-up: method as in PMID 31226283; conditions: bacterial suspension 10^6 CFU per milliliter; cited from earlier work
[6] = system: Escherichia coli VKPM (B-7935); test: Antimicrobial activity: E. coli growth (OD620, 96-well broth); type: cell-based
Protocol: as §5, §6

[7] = H9c2 cell viability (MTT) assay; type: cell-based, rat; conditions: rat, H9c2 cardiomyocytes, 24 h, MTT
Protocol: as §1, §2, §3

[8] = system: C. albicans biofilm formation; test: Crystal violet biofilm formation assay, C. albicans; type: cell-based, Candida albicans; conditions: for inhibition of C. albicans biofilm formation: concentrations from 12.5 to 100 µM
Protocol: as §4

[9] = system: E. coli biofilm formation; test: Crystal violet biofilm formation assay, E. coli; type: cell-based, Escherichia coli
Protocol: as §4

Staphylococcus aureus [10] = test: Literature antibacterial activity against Staphylococcus aureus; type: cell-based; conditions: calculated from 100 μg/mL
[11] = in vivo assay; cited from earlier work
[12] = concentrations from 12.5 to 100 µM

Compound	inhibition of S. aureus growth ([4]; 12.5 µM)	inhibition at 12.5 µM ([6]; Escherichia coli, 12.5 µM) [%]	inhibition at 50 µM (sortase A from S. aureus) [%]	viability at 24 h, 1 µM [7] [%]	viability at 24 h, 10 µM [7] [%]	viability at 24 h, 100 µM [7] [%]	prevention of S. aureus biofilm formation ([3]; 100 µM) [%]	inhibition at 12.5 µM [4] [%]	inhibition at 100 µM [4] [%]	inhibition at 100 µM ([6]; Escherichia coli, 100 µM) [%]	inhibition of C. albicans biofilm formation [8]	inhibition of C. albicans growth (Candida albicans KMM 455; [12])	also measured
CC1C=CC(=O)C2(C)CCC3C4C(C)(CC(O)C4(C)C)CC132 (stereo not shown) [Compound 3, conidiogenone F]	did not influence	24.3	–	–	–	–	–	–	–	–	–	–	inhibition of sortase A activity (sortase A from S. aureus): 13.1%; Cell Viability (H9c2 cardiomyocytes; 1 µM): 103.3 ± 3.2%; Cell Viability (H9c2 cardiomyocytes; 10 µM): 92.9 ± 2.5%; Cell Viability (H9c2 cardiomyocytes; 100 µM): 109.7 ± 9.2%; concentration at which activity was recorded (E. coli) (Escherichia coli [1]): 166 µM; concentration of antibacterial activity against Escherichia coli (Escherichia coli [2]): 50 µg/mL; prevention of S. aureus biofilm formation ([3]; only at concentrations of 50 µM and 100 µM): 10–15%; inhibition of C. albicans growth (Candida albicans KMM 455; 12.5 µM): 26.5%; inhibition of S. aureus growth ([4]; 100 µM): 17.6%; concentration of antibacterial activity against Staphylococcus aureus (Staphylococcus aureus [5]): > 100 µg/mL; inhibition of E. coli growth ([6]; 100 µM): 36.4%
CC12CC(=O)C(C)(C)C1C1CCC3(C)C(=O)C=CC(C)(O)C13C2 (stereo not shown) [Compound 1, 4-hydroxyleptosphin C]	–	–	28.2	94.8 ± 5.9	65.7 ± 9.4	63.2 ± 0.5	34.5	15.3	29.3	35.9	–	–	decrease in H9c2 cell viability (H9c2 cardiomyocytes; 10 µM): ~30%; decrease of H9c2 viability (H9c2 cardiomyocytes; 100 µM): ~30%; prevention of S. aureus biofilm formation ([3]; 12.5 µM): 15.9%; inhibition at 12.5 µM (Candida albicans KMM 455; Candida albicans): 30.4%; inhibition of E. coli growth ([6]; 12.5 µM): not observed
CC1C=CC(=O)C2(C)CCC3C4C(C)(CC(O)C4(C)C)CC132 (stereo not drawn) [Compound 2, 13-epi-conidiogenone F]	no effect	–	–	98.1 ± 1.9	107 ± 7.8	–	52.6	–	19.1	27.3	–	–	inhibition of sortase A activity (sortase A from S. aureus): 36.9%; decrease of H9c2 viability (H9c2 cardiomyocytes; 100 µM): ~30%; Cell Viability (H9c2 cardiomyocytes; 100 µM): 67.3 ± 3.1%; prevention of S. aureus biofilm formation ([3]; 12.5 µM): 37.9%; IC50 [3]: 76.1 µM; inhibition at 12.5 µM (Candida albicans KMM 455; Candida albicans): 27.9%; inhibition of E. coli growth ([6]; 12.5 µM): not observed
CC1C=CC(=O)C2(C)CCC3C4C(C)(CC(=O)C4(C)C)CC132 (stereo not shown) [Compound 4, leptosphin C]	–	7.2	20	107 ± 2.9	102 ± 4.6	92.3 ± 1.9	54.5	10.3	42.4	41.7	30.6–36.4%	38.7–44.8%	effect on biofilm formation by C. albicans (in words) [8]: affected the biofilm formation; effect on biofilm formation of E. coli (in words) [9]: affect the biofilm formation; prevention of E. coli biofilm formation ([9]; concentrations of 25–100 µM): 30–40%; concentration of antibacterial activity against Escherichia coli (Escherichia coli [2]): > 100 µg/mL; concentration at which activity was recorded (S. aureus) (Staphylococcus aureus [10]): 333 µM; IC50 ([3]; S. aureus biofilm): 85.5 µM; concentration of antibacterial activity against Staphylococcus aureus (Staphylococcus aureus [5]): 100 µg/mL
C[C@H]1CCC[C@H](C[C@H]2Cc3cc(O)cc(O)c3C(=O)O2)O1 [Compound 7, cladosporin]	–	–	–	–	–	–	–	–	–	–	–	–	clearance rate in the body [11]: high; oral bioavailability [11]: poor
C[C@H]1CCC[C@H](C[C@@H](O)CC(=O)O)O1 [Compound 5, antaketide A]	did not show any influence	12.5	25.5	94.4 ± 3.1	88.5 ± 3.1	74.1 ± 4.9	–	–	48.5	40.9	did not affect	36.2–48.4%	toxicity toward normal cardiomyocytes (H9c2 cardiomyocytes): significant toxicity; effect on biofilm formation of E. coli (in words) [9]: affect the biofilm formation; prevention of E. coli biofilm formation ([9]; concentrations of 12.5–100 µM, respectively): 21–45%; prevention of the biofilm formation of S. aureus [3]: 30–40%
C[C@H]1CCC[C@H](CC(=O)O)O1 [Compound 6, 2-((2R,6S)-6-methyltetrahydro-2H-pyran-2-yl)acetic acid]	–	27.7	16.8	98.1 ± 1.6	80.9 ± 2.9	54.6 ± 2.1	–	25.6	46.5	56.9	14.7–23.1%	34.7-52.1%	effect on biofilm formation by C. albicans (in words) [8]: affected the biofilm formation; toxicity toward normal cardiomyocytes (H9c2 cardiomyocytes): significant toxicity; prevention of the biofilm formation of S. aureus [3]: 30–40%; IC50 (Candida albicans KMM 455; Candida albicans, KMM455): 89.9 µM; IC50 ([6]; Escherichia coli, read-out: IC50 of E. coli growth inhibition): 84.9 µM
